Patent US11369611B2, “Therapeutic compounds and uses thereof” (Kala Pharmaceuticals, Inc., priority 2013, dated 2022)

Columns and labels:
[1] = Particle size of compounds milled with PLURONIC F127 as MPP (dynamic light scattering); type: physicochemical; conditions: formulated as MPP, milled with PLURONIC F127, DPBS buffered
From the text: The compounds of the present invention synthesized in accordance with the preceding Examples were formulated as mucus penetrating particles (MPP). Specifically, Compound 4 of Example 1, Compound 9 of Example 2, and Compound 13 of Example 3 were each milled in the presence of PLURONIC F127 (F127) to determine whether F127 1) aids particle size reduction to several hundreds of nanometers and 2) physically (non-covalently) coats the surface of generated nanoparticles with a mucoinert coating that would minimize particle interactions with mucus constituents and prevent mucus adhesion.
A milling procedure was employed in which an aqueous dispersion containing coarse drug particles and PLURONIC F127 (F127) was milled with grinding medium until particle size was reduced below 400 nm as measured by dynamic light scattering. Table 4 lists the size of particles and polydispersity index (a measure of the width of the particle size distribution) generated using this technique. In this example suspensions were buffered using DPBS (Dulbecco's Phosphate-Buffered Saline) which yields a suspension that is both isotonic and has a physiologically relevant pH.

[2] = Draize ocular irritation assessment; type: in vivo; conditions: MPP 0.5%, 50 μL topical BID 5 days, Dutch-belted rabbits
From the text: Dutch-belted rabbits were used in these studies.

COc1cc2c(Oc3ccc4[nH]c(C)cc4c3F)ncnc2cc1OCCCN1CCC2(CC1)COC2 [Compound 4, 7-(3-(4-(4-fluoro-2-methyl-1H-indol-5-yloxy)-6-methoxyquinazolin-7-yloxy)propyl)-2-oxa-7-azaspiro[3.5]nonane]
Particle Size [1]: 270 nm | Draize-Ocular Irritation [2]: no irritation was seen
